Key:
[1] = test system: VCAM-1; conditions: 0.2 mmol/l, 24 hours in conjunction with IL-1; cited from earlier work
[2] = test system: endothelial cells; conditions: 0.2 mmol/l, 24 hours in conjunction with IL-1; cited from earlier work
[3] = test system: cytoadherence of P. falciparum parasitised red cells to C32 melanoma cells; test: C32 melanoma cell cytoadherence assay with SNO-cysteine-treated parasitised red cells; assay type: cell-based, Plasmodium falciparum; conditions: Expt 5: JR strain, SNO-cysteine final concentration 5 mM, 40 minutes, parasitised red cells resuspended in 2% w/v borate

Compound | inhibition of VCAM-1 [1] | endothelial toxicity [2] | binding (cytoadherence to C32 melanoma cells) [3] [%]
N[C@@H](CCC(=O)N[C@@H](CSN=O)C(=O)NCC(=O)O)C(=O)O [SNO-glutathione] | maximal inhibition of VCAM-1 | minimal endothelial toxicity | –
N[C@@H](CSN=O)C(=O)O [SNO-cysteine] | – | – | 0

From patent publication US7179615B1 (priority 1997, dated 2007)
